The experiment is described as follows: Inhibition of TNF-alpha-induced NFkappaB activation in human HEK293 cells after 6 hrs by luciferase reporter gene assay. It is filed as cell-based. The following applies: HEK293, 6 h. In general terms: A reporter such as luciferase makes a cellular process visible.

Consider one compound from ChEMBL document CHEMBL1687868, “Bioactive compounds from the fern Lepisorus contortus” (J Nat Prod, 2011).

pIC50: −log10 of the molar value.

Turning to `Cc1ccc(S(=O)(=O)N[C@@H](Cc2ccccc2)C(=O)CCl)cc1` [TPCK], the pIC50 is 5.42.

In general, pIC50 refers to the IC50 on a negative log10 scale, so that one unit is a factor of ten. A high value points to a low IC50.
